Data taken from patent US10287619B2, “Measurement method for dehydrogenase and substrate concentration thereof, electron mediator, and measurement reagent for dehydrogenase including said electron mediator and for substrate thereof” (Dojindo Laboratories, priority 2014, dated 2019).

Tests used:
[1] = tested on: Human myeloid leukemia cells (HL60); assay: Evaluation of electron transfer with living cells (WST-8 formazan formation); type: cell-based; conditions: HL60 25,000 to 0 cells/well; WST-8 500 μM, electron mediator 10 μM; 37° C. for 3 hours; FIG. 3A-3D
Procedure: Examples of the evaluation of the electron transfer between the electron mediators and the living cells are shown. For comparison, a similar experiment was carried out using 1-Methoxy PMS, a known electron mediator that carries out electron transfer with the living cells. Human myeloid leukemia cells (HL60) were seeded on a 96 well microplate at 25,000 to 0 cells/well, the measurement reagent was added at a final concentration shown below, after reacting at 37° C. for 3 hours and absorbance at 450 nm was measured. Final concentration of the measurement reagent: WST-8 (500 μM), the electron mediator (10 μM).

[2] = tested on: Chinese Hamster Ovarian (CHO) cells; assay: Cytotoxicity assay using LDH leaked out of the dead cells as an index; type: cell-based; conditions: comparison of the IC50 obtained with the electron mediator of the invention (FIG. 5A) and with the commercial LDH-Cytotoxicity Assay Kit (FIG. 5B); MMC 1 mM to 0.0001 mM, 20 hours
Procedure: The example of the cytotoxicity assay using the LDH leaked out of the dead cell as an index and the solutions of the chromogenic reagent prepared using the electron mediator according to the present invention is shown. As a model of the cytotoxicity assay, cytotoxicity of mitomycin C (MMC) against Chinese Hamster Ovarian (CHO) cells was assayed.
A suspension of the CHO cells at the concentration of 1.5×10^5 cells/mL was prepared using serum-containing medium and 100 μL of the suspension was seeded to each well of a 96 well microplate. After incubating at 37° C. for 4 hours in a CO2 incubator, 10 μL of MMC was added at final concentration of 1 mM to 0.0001 mM. The microplate was incubated at 37° C. for 20 hours in the CO2 incubator. […] After incubating at 37° C. for 20 minutes in a CO2 incubator, the absorbance at 450 nm was measured using a microplate reader.
A comparative experiment using a commercially available dead cell assay kit (BioPioneer Inc., LDH-Cytotoxicity Assay Kit) using LDH as an index. […] The measurement method of the absorbance was similar to that as mentioned above except that supernatant of the medium was taken and transferred to another plate so as not to be contaminated with the living cells upon conducting the chromogenic reaction.

COS(=O)(=O)[O-].COc1cccc2c1nc1ccccc1[n+]2C [1-Methoxy PMS, 1-methoxy phenazine methosulfate]
formation of the formazan attributed to the living cells (absorbance at 450 nm) [1]: increasing of absorbance

CO[C@@]12[C@H](COC(N)=O)C3=C(C(=O)C(C)=C(N)C3=O)N1C[C@@H]1N[C@@H]12 [mitomycin C]
50% Inhibition concentration (IC50) against the CHO cell [2]: No difference was observed
